Values of other authors as cited in patent US4946853A, “Method for the treatment of withdrawal symptoms associated with smoking cessation and preparations for use in said method” (priority 1987, dated 1990).

Experiments:
[1] = within one hour of first smoking; 60 min
[2] = oral nicotine administration
[3] = in vivo

CN1CCCC1c1cccnc1 (stereo not drawn) [nicotine]
normal plasma trough level associated with usual smoking [1]: 5 to 15 ng/mL
gastrointestinal upsets [2]: susceptibility of the patient to gastrointestinal upsets
absorption by the percutaneous route [3]: high degree of absorption
